Data published in the supplement of paper PMC10307832.

What was measured:
Assay in all cases: relative viability (nuclei count vs DMSO), 5 days (fraction); higher = more cells survive
[1] = tested on: HCC-827
Outline: (§1)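 Relative viability divides the nuclei count in treated wells by that in vehicle wells. Lung cancer cell lines were seeded in 1536-well plates, dosed by pin tool the next day, and fixed and stained after 5 days in one step with final 0.05% Triton X-100, 1% formaldehyde and 1 ug/ml Hoechst. Dosing was a single drug or a fixed anchor-drug dose plus five library-drug doses (not always all listed) in √10 steps, and values are medians of duplicate plates imaged at 4×.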

[2] = tested on: EMC-BAC-2
Outline: as §1

[3] = tested on: NCI-H1755
Outline: as §1

[4] = tested on: LCLC-97TM1
Outline: as §1

[5] = tested on: NCI-H1355
Outline: as §1

[6] = tested on: HCC-15
Outline: as §1

[7] = tested on: NCI-H1792
Outline: as §1

[8] = tested on: RERF-LC-KJ
Outline: as §1

[9] = tested on: NCI-H1915
Outline: as §1

[10] = tested on: UMC-11
Outline: as §1

[11] = tested on: NCI-H838
Outline: as §1

[12] = tested on: COR-L23
Outline: as §1

[13] = tested on: NCI-H520
Outline: as §1

[14] = tested on: HARA
Outline: as §1

[15] = tested on: NCI-H3122
Outline: as §1

[16] = tested on: SW 1573
Outline: as §1

[17] = tested on: LC-2-ad
Outline: as §1

[18] = tested on: NCI-H2126
Outline: as §1

[19] = tested on: EKVX
Outline: as §1

[20] = tested on: H3255
Outline: as §1

[21] = tested on: NCI-H2405
Outline: as §1

[22] = tested on: NCI-H23
Outline: as §1

`Nc1cccc2c1CN(C1CCC(=O)NC1=O)C2=O` (stereo unspecified) [Lenalidomide] + CC1(C)CCC(c2ccc(Cl)cc2)=C(CN2CCN(c3ccc(C(=O)NS(=O)(=O)c4ccc(N[C@H](CCN5CCOCC5)CSc5ccccc5)c(S(=O)(=O)C(F)(F)F)c4)cc3)CC2)C1 [Navitoclax] (partner 0.5 µM) gave a relative viability ([1]; first compound 0.253 µM) of 1.06, a relative viability ([1]; first compound 0.8 µM) of 0.977 and a relative viability ([1]; first compound 2.53 µM) of 1.01. For the same compound, the relative viability ([1]; first compound 8 µM) was 1.07, the relative viability ([2]; first compound 0.253 µM) was 1.18 and the relative viability ([2]; first compound 0.8 µM) was 1.15. For the same compound, the relative viability ([2]; first compound 2.53 µM) was 1.33, the relative viability ([2]; first compound 8 µM) was 0.975 and the relative viability ([3]; first compound 0.253 µM) was 0.994. For the same compound, the relative viability ([3]; first compound 0.8 µM) was 1.01, the relative viability ([3]; first compound 2.53 µM) was 1.01 and the relative viability ([3]; first compound 8 µM) was 0.745. For the same compound, the relative viability ([4]; first compound 0.8 µM) was 0.544, the relative viability ([4]; first compound 2.53 µM) was 0.502 and the relative viability ([4]; first compound 8 µM) was 0.407. The relative viability ([5]; first compound 0.253 µM) was 1, the relative viability ([5]; first compound 0.8 µM) was 0.737 and the relative viability ([5]; first compound 2.53 µM) was 0.889. It also gave a relative viability ([5]; first compound 8 µM) of 0.561, a relative viability ([6]; first compound 0.253 µM) of 0.698 and a relative viability ([6]; first compound 2.53 µM) of 0.814. It also gave a relative viability ([6]; first compound 8 µM) of 0.676, a relative viability ([7]; first compound 0.253 µM) of 0.74 and a relative viability ([7]; first compound 0.8 µM) of 0.582. For the same compound, the relative viability ([7]; first compound 2.53 µM) was 0.848, the relative viability ([7]; first compound 8 µM) was 0.364 and the relative viability ([8]; first compound 0.253 µM) was 0.959. For the same compound, the relative viability ([8]; first compound 0.8 µM) was 0.736, the relative viability ([8]; first compound 2.53 µM) was 1.02 and the relative viability ([8]; first compound 8 µM) was 1.09. The relative viability ([9]; first compound 0.253 µM) was 0.775, the relative viability ([9]; first compound 0.8 µM) was 0.782 and the relative viability ([9]; first compound 2.53 µM) was 0.816. For the same compound, the relative viability ([9]; first compound 8 µM) was 0.835, the relative viability ([10]; first compound 0.253 µM) was 0.317 and the relative viability ([10]; first compound 0.8 µM) was 0.28. For the same compound, the relative viability ([10]; first compound 2.53 µM) was 0.346, the relative viability ([10]; first compound 8 µM) was 0.277 and the relative viability ([11]; first compound 0.253 µM) was 1.15. For the same compound, the relative viability ([11]; first compound 0.8 µM) was 1.09, the relative viability ([11]; first compound 2.53 µM) was 1.29 and the relative viability ([11]; first compound 8 µM) was 1.1. It also gave a relative viability ([12]; first compound 0.253 µM) of 0.986, a relative viability ([12]; first compound 0.8 µM) of 1.01 and a relative viability ([12]; first compound 2.53 µM) of 0.997. The relative viability ([12]; first compound 8 µM) was 1.06, the relative viability ([13]; first compound 0.253 µM) was 0.958 and the relative viability ([13]; first compound 0.8 µM) was 1.05. It also gave a relative viability ([13]; first compound 2.53 µM) of 1.22, a relative viability ([13]; first compound 8 µM) of 0.892 and a relative viability ([14]; first compound 0.253 µM) of 1.14. For the same compound, the relative viability ([14]; first compound 0.8 µM) was 1.12, the relative viability ([14]; first compound 2.53 µM) was 1.19 and the relative viability ([14]; first compound 8 µM) was 1.2. It also gave a relative viability ([15]; first compound 0.253 µM) of 1, a relative viability ([15]; first compound 0.8 µM) of 1.08 and a relative viability ([15]; first compound 2.53 µM) of 0.997. The relative viability ([15]; first compound 8 µM) was 1.07, the relative viability ([16]; first compound 0.253 µM) was 0.931 and the relative viability ([16]; first compound 0.8 µM) was 0.911. For the same compound, the relative viability ([16]; first compound 2.53 µM) was 1.07, the relative viability ([16]; first compound 8 µM) was 0.926 and the relative viability ([17]; first compound 0.253 µM) was 0.448. It also gave a relative viability ([17]; first compound 0.8 µM) of 0.421, a relative viability ([17]; first compound 2.53 µM) of 0.478 and a relative viability ([17]; first compound 8 µM) of 0.44. It also gave a relative viability ([18]; first compound 0.253 µM) of 0.798, a relative viability ([18]; first compound 0.8 µM) of 0.907 and a relative viability ([18]; first compound 2.53 µM) of 0.815. It also gave a relative viability ([18]; first compound 8 µM) of 0.688, a relative viability ([19]; first compound 0.253 µM) of 0.882 and a relative viability ([19]; first compound 0.8 µM) of 0.855. It also gave a relative viability ([19]; first compound 2.53 µM) of 1.13, a relative viability ([19]; first compound 8 µM) of 0.843 and a relative viability ([20]; first compound 0.253 µM) of 0.519. The relative viability ([20]; first compound 0.8 µM) was 0.395, the relative viability ([20]; first compound 2.53 µM) was 0.589 and the relative viability ([20]; first compound 8 µM) was 0.523. For the same compound, the relative viability ([21]; first compound 0.253 µM) was 0.83, the relative viability ([21]; first compound 0.8 µM) was 0.921 and the relative viability ([21]; first compound 2.53 µM) was 0.793. It also gave a relative viability ([21]; first compound 8 µM) of 0.802, a relative viability ([22]; first compound 0.253 µM) of 0.876 and a relative viability ([22]; first compound 0.8 µM) of 0.917. It also gave a relative viability ([22]; first compound 2.53 µM) of 0.999 and a relative viability ([22]; first compound 8 µM) of 0.649.
